This is an account of results in PubChem BioAssay (NCI).

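Results reflect a 48-hour exposure of cells in 96-well plates to compound at five concentrations. Definition used: TGI = concentration required for complete inhibition of growth.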 *1 amine or outer side, *2 acyl side, *3 side chain or, on linkers, in order; H or OH if unused. Where a SMILES comes first, the peptide text is derived from it. Bridges are numbered along the chain shown (N, C = ends). Roman numbers before positions name the chains, in order. [ ]: non-standard residue; d: D form. Actinocin(9to1) = Cc1c2oc3c(C)ccc(C(=O)[*:1])c3nc-2c(C(=O)[*:2])c(N)c1=O; Hyp = O=C(O)[CH]1C[CH](O)CN1; NMeV = CN[CH](C(=O)O)C(C)C; Sar = CNCC(=O)O A value given as a limit tells only on which side of the number the result lay.

Among the test systems are U251 CNS; SNB-75 CNS; COLO 205 colon; RXF 393 renal; SK-MEL-5 melanoma; NCI-H23 lung; A549 NSCLC; HOP-92 NSCLC; NCI/ADR-RES ovarian; TK-10 renal; K-562 leukemia.
Assay in all cases: NCI anticancer screen, dose series, 48 h

Take `CC(=O)O[C@H]1C(=O)[C@@]2(C)[C@H]([C@H](OC(=O)c3ccccc3)[C@]3(O)C[C@H](OC(=O)[C@H](O)[C@@H](NC(=O)c4ccccc4)c4cccc(N(C)C)c4)C(C)=C1C3(C)C)[C@]1(OC(C)=O)CO[C@@H]1C[C@@H]2O`: the TGI in the experiment on U251 CNS was more than 27 µM; in the experiment on SNB-75 CNS, more than 36.1 µM; with COLO 205 colon it was 0.285 µM; with RXF 393 renal, 1.24 µM; with SK-MEL-5 melanoma, 11.3 µM; with NCI-H23 lung it was more than 75 µM. The TGI in the experiment with A549 NSCLC is more than 75 µM; with HOP-92 NSCLC, more than 75 µM; with NCI/ADR-RES ovarian it was more than 62.5 µM; with TK-10 renal, more than 60 µM; in the experiment on K-562 leukemia it was more than 75 µM.

For the compound `CN(C)CCOc1ccc(-c2c(Oc3ccccc3)c(=O)oc3ccccc23)cc1`, the TGI with U251 CNS is 17.3 µM; with SNB-75 CNS, 23.6 µM; in the experiment with COLO 205 colon, 24.7 µM; in the experiment with RXF 393 renal, 17.6 µM; in the experiment with SK-MEL-5 melanoma it was 13.1 µM; in the experiment on NCI-H23 lung, 28.6 µM. Moreover, the TGI in the experiment with A549 NSCLC was determined as 15.3 µM; in the experiment on HOP-92 NSCLC, 32.7 µM; in the experiment with NCI/ADR-RES ovarian, 25 µM; in the experiment on TK-10 renal, 26.4 µM; with K-562 leukemia it was 23 µM.

With `COc1ccc2c(c1)NC1(CCN(CCCC(=O)c3ccc(F)cc3)CC1)N=N2`, the TGI came out at 48.6 µM in the experiment on U251 CNS; 39.8 µM with SNB-75 CNS; 27.8 µM in the experiment with COLO 205 colon; 55.1 µM in the experiment on RXF 393 renal; 25.3 µM in the experiment with SK-MEL-5 melanoma; 97.7 µM with NCI-H23 lung. Besides, the TGI in the experiment on A549 NSCLC was more than 100 µM; in the experiment on HOP-92 NSCLC, more than 100 µM; in the experiment with NCI/ADR-RES ovarian, more than 100 µM; in the experiment with TK-10 renal, 62.2 µM; with K-562 leukemia, 41 µM.

As to `Nn1c(=O)[nH]c2ncn(Cc3ccccc3)c2c1=O`, the TGI in the experiment on U251 CNS, with SNB-75 CNS, in the experiment on COLO 205 colon, in the experiment on RXF 393 renal, with SK-MEL-5 melanoma and in the experiment with NCI-H23 lung was more than 100 µM each time. In addition, the TGI in the experiment with A549 NSCLC, with HOP-92 NSCLC, in the experiment with NCI/ADR-RES ovarian, in the experiment with TK-10 renal and in the experiment on K-562 leukemia was more than 100 µM in each case.

`c1ccc(Nc2nn3c(CCCCCCCCc4nnc5sc(Nc6ccccc6)nn45)nnc3s2)cc1`: the TGI is more than 100 µM with U251 CNS; 75.5 µM in the experiment with SNB-75 CNS; 42.8 µM in the experiment on COLO 205 colon; more than 100 µM in the experiment on RXF 393 renal; 24.6 µM with SK-MEL-5 melanoma; more than 100 µM in the experiment on NCI-H23 lung. In addition, the TGI is more than 100 µM in the experiment with A549 NSCLC; more than 100 µM in the experiment on HOP-92 NSCLC; more than 100 µM in the experiment with NCI/ADR-RES ovarian; more than 100 µM in the experiment on TK-10 renal; 37.6 µM in the experiment on K-562 leukemia.

As to `Cc1c2oc3c(C)ccc(C(=O)NC4C(=O)NC(C(C)C)C(=O)N5CC(O)CC5C(=O)N(C)CC(=O)N(C)C(C(C)C)C(=O)OC4C)c3nc-2c(C(=O)NC2C(=O)NC(C(C)C)C(=O)N3CC(O)CC3C(=O)N(C)CC(=O)N(C)C(C(C)C)C(=O)OC2C)c(N)c1=O` (configuration not stated) (I: TV[Hyp][Sar][NMeV] / II: TV[Hyp][Sar][NMeV]; ester I:1-I:C, II:1-II:C; linker I:N-II:N via Actinocin(9to1); configuration not given here), the TGI in the experiment with U251 CNS, in the experiment with SNB-75 CNS, in the experiment with COLO 205 colon, with RXF 393 renal, with SK-MEL-5 melanoma and in the experiment with NCI-H23 lung was more than 1 µM throughout. Besides, the TGI in the experiment on A549 NSCLC, in the experiment with HOP-92 NSCLC, with NCI/ADR-RES ovarian, in the experiment on TK-10 renal and in the experiment with K-562 leukemia was more than 1 µM each time.

Take `COc1ccc(-c2ncn(C[Si](C)(C)C)c2-c2ccc(OC)cc2)cc1`: the TGI in the experiment on U251 CNS was 20.7 µM; in the experiment with SNB-75 CNS, 28.3 µM; with COLO 205 colon, 11.7 µM; in the experiment with RXF 393 renal it was 21.1 µM; in the experiment on SK-MEL-5 melanoma, 10.2 µM; with NCI-H23 lung, 18.5 µM. Besides, the TGI in the experiment on A549 NSCLC was 27.2 µM; in the experiment on HOP-92 NSCLC, 17.5 µM; with NCI/ADR-RES ovarian, 29.1 µM; in the experiment with TK-10 renal it was 20 µM; with K-562 leukemia, 10.6 µM.

`COC(=O)c1cn(CC(O)CCl)nn1` (configuration not stated): the TGI with U251 CNS, with SNB-75 CNS, with COLO 205 colon, in the experiment on RXF 393 renal, in the experiment on SK-MEL-5 melanoma and in the experiment with NCI-H23 lung was more than 100 µM throughout. Also, the TGI in the experiment on A549 NSCLC, in the experiment on HOP-92 NSCLC, in the experiment on NCI/ADR-RES ovarian, in the experiment on TK-10 renal and in the experiment with K-562 leukemia was more than 100 µM each time.

In the case of `Cc1nc2ccc(F)cc2c(Cl)c1CCCl`, the TGI was more than 100 µM with U251 CNS; more than 100 µM in the experiment with SNB-75 CNS; 47.2 µM in the experiment on COLO 205 colon; 79.9 µM in the experiment on RXF 393 renal; 52.7 µM in the experiment on SK-MEL-5 melanoma; more than 100 µM in the experiment with NCI-H23 lung. In addition, the TGI was more than 100 µM with A549 NSCLC; more than 100 µM in the experiment with HOP-92 NSCLC; more than 100 µM in the experiment on NCI/ADR-RES ovarian; more than 100 µM in the experiment on TK-10 renal; 68.2 µM in the experiment with K-562 leukemia.

As for `O=C(C/C(=N/O)C(F)(F)F)c1cccs1`, the TGI with U251 CNS, in the experiment on SNB-75 CNS, in the experiment with COLO 205 colon, in the experiment with RXF 393 renal, in the experiment on SK-MEL-5 melanoma and in the experiment with NCI-H23 lung was more than 100 µM each time. The TGI with A549 NSCLC, in the experiment on HOP-92 NSCLC, with NCI/ADR-RES ovarian, with TK-10 renal and in the experiment with K-562 leukemia was more than 100 µM each time.

In the case of `CN1Cc2cc(O)c(O)cc2C(O)C1` (configuration not stated), the TGI in the experiment with U251 CNS, in the experiment on SNB-75 CNS, with COLO 205 colon, in the experiment on RXF 393 renal, with SK-MEL-5 melanoma and in the experiment on NCI-H23 lung was more than 100 µM in each case. In addition, the TGI in the experiment with A549 NSCLC, with HOP-92 NSCLC, in the experiment with NCI/ADR-RES ovarian, in the experiment on TK-10 renal and in the experiment on K-562 leukemia was more than 100 µM throughout.

`Cc1ccc(N=Nc2c(O)ccc3cc(S(=O)(=O)O)ccc23)cc1`: the TGI in the experiment with U251 CNS, with SNB-75 CNS, with COLO 205 colon, in the experiment on RXF 393 renal, with SK-MEL-5 melanoma and in the experiment with NCI-H23 lung was more than 100 µM each time. For the same compound, the TGI in the experiment on A549 NSCLC, in the experiment with HOP-92 NSCLC, in the experiment with NCI/ADR-RES ovarian, in the experiment with TK-10 renal and with K-562 leukemia was more than 100 µM throughout.

For `Cc1cc2c(cc1C)C(=O)C1(C2)Cc2cc3c(cc2C1=O)CCC3` (configuration not stated), the TGI in the experiment on U251 CNS, in the experiment on SNB-75 CNS, in the experiment on COLO 205 colon, in the experiment with RXF 393 renal, in the experiment with SK-MEL-5 melanoma and in the experiment on NCI-H23 lung was more than 100 µM throughout. The TGI in the experiment on A549 NSCLC, in the experiment on HOP-92 NSCLC, with NCI/ADR-RES ovarian, in the experiment on TK-10 renal and in the experiment with K-562 leukemia was more than 100 µM each time.

For `N/C(=N\Nc1ccc(Cl)cc1)c1cnccn1`, the TGI was more than 100 µM in the experiment with U251 CNS; more than 100 µM in the experiment with SNB-75 CNS; 40.1 µM with COLO 205 colon; more than 100 µM in the experiment with RXF 393 renal; 54.6 µM with SK-MEL-5 melanoma; more than 100 µM with NCI-H23 lung. For the same compound, the TGI with A549 NSCLC, in the experiment with HOP-92 NSCLC, in the experiment on NCI/ADR-RES ovarian, with TK-10 renal and in the experiment on K-562 leukemia was more than 100 µM in each case.

For the compound `COc1c(Br)cc2ccccc2c1-c1c(OC)c(Br)cc2ccccc12`, the TGI with U251 CNS, with SNB-75 CNS, with COLO 205 colon, with RXF 393 renal, in the experiment with SK-MEL-5 melanoma and in the experiment on NCI-H23 lung was more than 100 µM each time. Besides, the TGI in the experiment with A549 NSCLC, with HOP-92 NSCLC, in the experiment on NCI/ADR-RES ovarian, in the experiment on TK-10 renal and in the experiment with K-562 leukemia was more than 100 µM each time.

Turning to `CCCCc1ccc(Nc2nc(Cl)c3c(ncn3C3CC(Oc4ccc(C)cc4)C(COc4ccc(C)cc4)O3)n2)cc1` (configuration not stated), the TGI in the experiment with U251 CNS is more than 100 µM; with SNB-75 CNS, 99.2 µM; in the experiment on COLO 205 colon, more than 100 µM; with RXF 393 renal, more than 100 µM; with SK-MEL-5 melanoma it was more than 100 µM; in the experiment on NCI-H23 lung it was more than 100 µM. In addition, the TGI in the experiment with A549 NSCLC, with HOP-92 NSCLC, in the experiment with NCI/ADR-RES ovarian, with TK-10 renal and with K-562 leukemia was more than 100 µM throughout.

Turning to `COC(=O)C(Cc1c[nH]c2ccccc12)NP(=O)(O)OCC1OC(n2cc(Br)c(=O)[nH]c2=O)CC1O` (configuration not stated), the TGI with U251 CNS, in the experiment on SNB-75 CNS, in the experiment with COLO 205 colon, in the experiment on RXF 393 renal, with SK-MEL-5 melanoma and with NCI-H23 lung was more than 100 µM throughout. The TGI in the experiment with A549 NSCLC, in the experiment on HOP-92 NSCLC, with NCI/ADR-RES ovarian, in the experiment with TK-10 renal and in the experiment on K-562 leukemia was more than 100 µM in each case.
